The values that follow come from publication PMC8920379, “The discovery of berberine erythrocyte-hemoglobin self-assembly delivery system: a neglected carrier underlying its pharmacokinetics” (Drug Delivery, 2022).

For data set [1], the system named is erythrocyte count, WBC count, PLT and Hb. Description: Haematological indicators (peripheral blood cells) after intravenous BBR. In kind it is in vivo, SD rats. Particulars: rats, i.v. 2.5 mg/kg, 5, 30 and 120 min, vs control group, n = 8. As to the method: After 48 SD rats were fed adaptively for a week, they were randomly divided into the control group and i.v. group (24 rats per group). Then they were further divided into 5, 30, and 120 min subgroups (n = 8). The SD rats in the i.v. group were intravenously administrated with 2.5 mg/kg BBR, while the control group was intravenously administrated with 1 mL 0.9% physiological saline solution. The blood samples were collected from the retroorbital sinus to K2EDTA-coated tubes, and used for the evaluation of haematological indicators including erythrocyte count, white blood cell (WBC) count, platelet count (PLT) and Hb.

For data set [2], the target named is T1, bovine hemoglobin (BHB) (Bos taurus, UniProt P01966+P02070).
T1 construct: purchased Sigma Aldrich
T1 sequence (P01966 2-142 limits assumed): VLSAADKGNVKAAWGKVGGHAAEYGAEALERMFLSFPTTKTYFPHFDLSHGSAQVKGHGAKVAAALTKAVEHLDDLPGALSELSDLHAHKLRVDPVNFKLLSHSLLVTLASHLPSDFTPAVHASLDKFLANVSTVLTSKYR
T1 sequence (P02070 whole entry): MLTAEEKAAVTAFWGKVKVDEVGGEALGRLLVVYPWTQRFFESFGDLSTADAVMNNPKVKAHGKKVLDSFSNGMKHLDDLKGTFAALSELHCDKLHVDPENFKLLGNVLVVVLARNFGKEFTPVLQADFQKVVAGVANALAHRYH
Description: Fluorescence quenching of BHB by BBR (Stern-Volmer) and thermodynamic parameters. In kind it is binding. Particulars: for Ksv (Stern-Volmer quenching constant) / kq (quenching rate constant): BHB 2 × 10^−6 mol/L, pH 7.4; for ΔG° / ΔH° / ΔS°: BBR–BHB system. As to the method:
Firstly, 1.0 mL of BHB (2.0 × 10^−6 mol/L) was mixed with 1.0 mL of 0.05 mol/L Tris-HCl buffer (pH = 7.4). And then BHB was added with different amounts of 0.25 × 10^−3 mol/L stock solution of BBR with an increment of 0.25 × 10^−5 mol/L until 1.75 × 10^−5 mol/L. […] (excitation at 280 nm and emission wavelengths ranging from 295 to 400 nm). The synchronous fluorescence spectra were measured through simultaneous scanning of the excitation (λex = 240 nm) and emission monochromators while maintaining a constant wavelength interval between them (Δλ, 15 nm and 60 nm).
In addition, CD spectra were collected from 200 to 260 nm with three scans averaged for each CD spectrum. The molar ratio (1:1) of BHB: BBR was used for the measurement. Briefly, BHB and BBR were dissolved in Tris-HCl (pH 7.4), and the solutions were freeze-dried into powder. Raman spectra were measured from 2600 to 400 cm^−1 using the Nd-YAG laser (1064 nm). Due to the existence of inner filter effects, the fluorescence parameter was corrected using the equation: F=F0×10^(AEX+AEM/2) where F and F0 are the fluorescence intensity corrected and observed, respectively; AEX and AEM are the sums of the absorbance of samples at excitation and emission wavelengths (Chen et al., [2021]).
Fluorescence quenching could be used to explore the interaction between drugs and proteins, and further elucidate the interaction between small drug molecules and biological macromolecules at the molecular level. Due to the quenching mechanisms were usually classified as static and dynamic quenching, the Stern-Volmer equation was utilized to calculate the fluorescence quenching data (Wang et al., [2007]): F0/F=1+Ksv[Q]=1+kqτ0[Q] where F0 and F are the fluorescence intensities at the absence or presence of BBR after correction by Equation, respectively. Ksv is the Stern-Volmer quenching constant, while [Q] is the concentration of the quencher. In addition, kq is the quenching rate constant of the binding system, and τ0 is the lifetime of fluorescence at the absence of quencher ([…]) (Sousa et al., [2008]).
In our earlier research, we have explored the association constants and the number of binding sites, and we have learned that in a static quenching system when a small molecule combines with a set of sites on a macromolecule, some constant can be calculated from the following equation: lg(F0−F/F)=lgKa+nlg[Q] where F0 and F are the fluorescence intensities in the absence and presence of BBR after correction by Equation in Spectrum procedure, Ka and n mean the association constants and the number of the sites per BHB molecule. The interrelated results were shown in our previous work (Chen et al., [2021]).
The thermodynamic parameters were analyzed using the following equations: ln((Ka)2/(Ka)1)=(1/T1−1/T2)(ΔH°/R) ΔG°=ΔH°−TΔS°=−RTlnKa where (Ka)1, and (Ka)2 are the binding constants at T1 and T2 and, R is the universal gas constant. If ΔH° < 0 and ΔS° < 0, van der Waals’ interactions and hydrogen bonds are dominant the binding reaction. If ΔH° > 0 and ΔS° > 0, hydrophobic interactions play a major role in the binding reaction. When ΔH° < 0 and ΔS° > 0, the electrostatic forces are more important than other forces (Ross and Subramanian, [1981]). […] The large positive entropy is the marker of the disruption and release of protein-bound condensed ions and water molecules (Basu & Suresh Kumar, [2015]).

On the set-up of data set [3]: method as in Liu et al., 2010; Chen et al., 2011. Particulars: ref Liu et al., 2010; Chen et al., 2011; cited from earlier work.

Entries after “also recorded” stand apart in the source; their conditions may differ.

With `COc1ccc2cc3[n+](cc2c1OC)CCc1cc2c(cc1-3)OCO2` [BBR, Berberine], in data set [1], the Hb content entry is given as “significantly decreased; also recorded: significantly reduced”, the erythrocytes count result is on record as “significantly decreased; also recorded: significantly reduced”, the platelet count entry was “did not fluctuate obviously; also recorded: no significant effects” and the white blood count entry was “did not fluctuate obviously; also recorded: no significant effects”. In data set [2] (293 K), the “Ksv (Stern-Volmer quenching constant)” value was 41272 L/mol, the “kq (quenching rate constant)” value was determined as 4.1272e+12 L/mol/s, the “ΔG°” value was -25.900 kJ/mol and the “ΔH°” value is -4.7495 kJ/mol. In data set [2] (293 K), the “ΔS°” value was 72.113 J mol^−1K^−1. In addition, in data set [2] (298 K), the “Ksv (Stern-Volmer quenching constant)” value was determined as 38445 L/mol, the “kq (quenching rate constant)” value turned out to be 3.8445e+12 L/mol/s, the “ΔG°” value is -26.261 kJ/mol and the “ΔH°” value was -4.7495 kJ/mol. The “ΔS°” value in data set [2] (298 K) was 72.114 J mol^−1K^−1. In data set [2] (310 K), the “Ksv (Stern-Volmer quenching constant)” value stood at 30957 L/mol, the “kq (quenching rate constant)” value came out at 3.0957e+12 L/mol/s, the “ΔG°” value was -26.984 kJ/mol and the “ΔH°” value is -4.7495 kJ/mol. The “ΔS°” value in data set [2] (310 K) is reported as 71.724 J mol^−1K^−1. The “quenching mechanism of BBR-BHB complex formation” value in data set [2] (Ksv and Kq decreased with increasing temperature) is “static quenching process”. Further, the “major force in the binding reaction” value in data set [2] (from negative ΔH° and positive ΔS°) is on record as “electrostatic interaction”. Besides, the oral bioavailability result in data set [3] was “less than 1%”.
